Patent US11377442B2, “Small molecule agonists and antagonists of NR2F6 activity” (ZANDER THERAPEUTICS, INC., priority 2016, dated 2022)
Several values for one entry are separate records, joined by “and”; a condition that tells them apart may be missing. Equal entries are not always repeated. Where two headings read alike, the source gives them in different places.

Legend:
Assay type in all cases: cell-based
Renilla [1] = test: Renilla signal, LBD, cmpd/DMSO (NR2F6 LBD transfected cells)
NR2F6 LBD = molecular target: T1, NR2F6 LBD (Homo sapiens, UniProt P10588); test: NR2F6 LBD transient transfection
T1 construct: expressed in transfected cells
T1 sequence (P10588 165-393 limits assumed): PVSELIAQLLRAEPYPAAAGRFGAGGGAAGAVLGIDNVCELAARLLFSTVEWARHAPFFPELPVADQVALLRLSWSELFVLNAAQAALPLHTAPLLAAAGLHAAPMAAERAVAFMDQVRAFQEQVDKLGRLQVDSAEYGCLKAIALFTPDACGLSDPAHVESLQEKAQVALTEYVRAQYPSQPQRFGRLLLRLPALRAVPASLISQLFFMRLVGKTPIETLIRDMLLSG
How it was run: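 LBD-transfected cells treated at 40, 10, 2 and 0.5 μM (4 replicates); cytotoxicity measured in parallel, normalized to DMSO (0%) and zero signal (100%). Higher concentrations excluded where signal loss reflected toxicity.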

NR2F6 = molecular target: T2, NR2F6 (Homo sapiens, UniProt P10588); test: NR2F6 agonist screening, Firefly signal cmpd/DMSO
T2 construct: expressed in transfected cells; also transient transfection
T2 sequence (P10588 1-404): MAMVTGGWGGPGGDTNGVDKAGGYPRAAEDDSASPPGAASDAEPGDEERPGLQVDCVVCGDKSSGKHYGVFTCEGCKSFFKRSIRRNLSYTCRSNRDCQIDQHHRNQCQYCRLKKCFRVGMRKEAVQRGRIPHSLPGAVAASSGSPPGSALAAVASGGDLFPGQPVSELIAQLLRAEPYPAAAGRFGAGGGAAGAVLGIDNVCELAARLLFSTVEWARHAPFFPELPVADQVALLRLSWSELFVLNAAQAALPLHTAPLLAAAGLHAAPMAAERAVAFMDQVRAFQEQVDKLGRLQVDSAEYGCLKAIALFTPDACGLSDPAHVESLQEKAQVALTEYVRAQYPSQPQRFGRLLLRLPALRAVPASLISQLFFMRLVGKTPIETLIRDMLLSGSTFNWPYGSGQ

Renilla [2] = test: Renilla signal in NR2F6 agonist screening, cmpd/DMSO; details: Renilla
HEK293 pGL4 = test: Firefly_pGL signal, cmpd/DMSO (pGL4 control cells); details: Homo sapiens
[3] = read-out: Renilla F4, cmpd/DMSO (mean)
[4] = F4, read-out: Renilla, F4, cmpd/DMSO (mean)
[5] = F4, 1% FBS, read-out: Renilla, F4, 1% FBS, cmpd/DMSO (mean)
[6] = F4, 10% FBS, read-out: Renilla, F4, 10% FBS, cmpd/DMSO (mean)

Firefly LBD, cmpd/DMSO (mean) (NR2F6 LBD; 0.5 uM): 0.8
Firefly LBD, cmpd/DMSO (mean) (NR2F6 LBD; 0.5 uM, LBD): 1.3
Firefly LBD, cmpd/DMSO (mean) (NR2F6 LBD; 2 uM): 1.7
Firefly LBD, cmpd/DMSO (mean) (NR2F6 LBD; 2 uM, LBD): 2.0
Firefly LBD, cmpd/DMSO (mean) (NR2F6 LBD; 10 uM): 4.3
Firefly LBD, cmpd/DMSO (mean) (NR2F6 LBD; 10 uM, LBD): 3.6
Firefly LBD, cmpd/DMSO (mean) (NR2F6 LBD; 40 uM): 0.5
Firefly LBD, cmpd/DMSO (mean) (NR2F6 LBD; 40 uM, LBD): 0.7
Firefly F4, cmpd/DMSO (mean) (NR2F6; 0.5 uM): 1.3
Firefly F4, cmpd/DMSO (mean) (NR2F6; 0.5 uM, F4): 1.4
Firefly F4, cmpd/DMSO (mean) (NR2F6; 2 uM): 1.4
Firefly F4, cmpd/DMSO (mean) (NR2F6; 2 uM, F4): 1.9
Firefly F4, cmpd/DMSO (mean) (NR2F6; 10 uM): 4.3
Firefly F4, cmpd/DMSO (mean) (NR2F6; 10 uM, F4): 4.1
Firefly F4, cmpd/DMSO (mean) (NR2F6; 40 uM): 0.9
Firefly F4, cmpd/DMSO (mean) (NR2F6; 40 uM, F4): 2.3
F4, Firefly/Renilla for S/B(F4) > 3 (NR2F6; 1% FBS, 10 uM): 2.7 and 2.1
F4, Firefly/Renilla for S/B(F4) > 3 (NR2F6; 10% FBS, 10 uM): 2.2
Firefly, F4/pGL4 for S/B(F4) > 3 (NR2F6; 10% FBS, 10 uM): 2.2
F4, Firefly/Renilla for S/B(F4) > 3 (NR2F6; 10% FBS, 40 uM): 1.4 and 2.5
Firefly, F4/pGL4 for S/B(F4) > 3 (NR2F6; 10% FBS, 40 uM): 2.3 and 2.1
Firefly, F4, 1% FBS, cmpd/DMSO (mean) (NR2F6; F4, 1% FBS, 0.5 uM): 0.8 and 0.9
Firefly, F4, 1% FBS, cmpd/DMSO (mean) (NR2F6; F4, 1% FBS, 2 uM): 1.5 and 0.9
Firefly, F4, 1% FBS, cmpd/DMSO (mean) (NR2F6; F4, 1% FBS, 10 uM): 5.4 and 3.6
Firefly, F4, 1% FBS, cmpd/DMSO (mean) (NR2F6; F4, 1% FBS, 40 uM): 0.8 and 0.7
Firefly, F4, 10% FBS, cmpd/DMSO (mean) (NR2F6; F4, 10% FBS, 2 uM): 1.1
Firefly, F4, 10% FBS, cmpd/DMSO (mean) (NR2F6; F4, 10% FBS, 10 uM): 4.1 and 2.3
Firefly, F4, 10% FBS, cmpd/DMSO (mean) (NR2F6; F4, 10% FBS, 40 uM): 4.2 and 6.2
Structure (SMILES): CC(C)CCN[C@H]1CS(=O)(=O)C[C@@H]1S(=O)(=O)c1ccc(Cl)cc1 [Compound D131]
Renilla LBD, cmpd/DMSO (mean) (Renilla [1]; 0.5 uM): 1.1
Renilla LBD, cmpd/DMSO (mean) (Renilla [1]; 2 uM): 1.1
Renilla LBD, cmpd/DMSO (mean) (Renilla [1]; 10 uM): 0.8
Renilla LBD, cmpd/DMSO (mean) (Renilla [1]; 40 uM): 0.2
fold induction at 0.5 µM (Renilla [2]; [3]): 1
fold induction at 2 µM (Renilla [2]; [3]): 1
fold induction at 10 µM (Renilla [2]; [3]): 1.9
fold induction at 40 µM (Renilla [2]; [3]): 0.3
fold induction at 0.5 µM (Renilla [2]; [4]): 1.1
fold induction at 2 µM (Renilla [2]; [4]): 1.2
fold induction at 10 µM (Renilla [2]; [4]): 1.6
fold induction at 40 µM (Renilla [2]; [4]): 1.8
fold induction at 0.5 µM (Renilla [2]; [5]): 1
fold induction at 2 µM (Renilla [2]; [5]): 1.3
fold induction at 10 µM (Renilla [2]; [5]): 2
fold induction at 40 µM (Renilla [2]; [5]): 2
fold induction at 0.5 µM (Renilla [2]; [6]): 1
fold induction at 2 µM (Renilla [2]; [6]): 1.1
fold induction at 10 µM (Renilla [2]; [6]): 1.8
fold induction at 40 µM (Renilla [2]; [6]): 3
fold induction at 0.5 µM (HEK293 pGL4; HEK293, 0.5 uM, pGL4, read-out: Firefly pGL4, cmpd/DMSO (mean)): 1.1
fold induction at 0.5 µM (HEK293 pGL4; HEK293, 0.5 uM, read-out: Firefly pGL4, cmpd/DMSO (mean)): 1
fold induction at 2 µM (HEK293 pGL4; HEK293, 2 uM, pGL4, read-out: Firefly pGL4, cmpd/DMSO (mean)): 1.5
fold induction at 2 µM (HEK293 pGL4; HEK293, 2 uM, read-out: Firefly pGL4, cmpd/DMSO (mean)): 1.3
fold induction at 10 µM (HEK293 pGL4; HEK293, 10 uM, pGL4, read-out: Firefly pGL4, cmpd/DMSO (mean)): 2.7
fold induction at 10 µM (HEK293 pGL4; HEK293, 10 uM, read-out: Firefly pGL4, cmpd/DMSO (mean)): 2.3
fold induction at 40 µM (HEK293 pGL4; HEK293, 40 uM, pGL4, read-out: Firefly pGL4, cmpd/DMSO (mean)): 0.5
fold induction at 40 µM (HEK293 pGL4; HEK293, 40 uM, read-out: Firefly pGL4, cmpd/DMSO (mean)): 1
fold induction at 0.5 µM (HEK293 pGL4; HEK293, pGL4, 1% FBS, 0.5 uM, read-out: Firefly, pGL4, 1% FBS, cmpd/DMSO (mean)): 1
fold induction at 2 µM (HEK293 pGL4; HEK293, pGL4, 1% FBS, 2 uM, read-out: Firefly, pGL4, 1% FBS, cmpd/DMSO (mean)): 1.1
fold induction at 10 µM (HEK293 pGL4; HEK293, pGL4, 1% FBS, 10 uM, read-out: Firefly, pGL4, 1% FBS, cmpd/DMSO (mean)): 1.7
fold induction at 40 µM (HEK293 pGL4; HEK293, pGL4, 1% FBS, 40 uM, read-out: Firefly, pGL4, 1% FBS, cmpd/DMSO (mean)): 0.9
fold induction at 0.5 µM (HEK293 pGL4; HEK293, pGL4, 10% FBS, 0.5 uM, read-out: Firefly, pGL4, 10% FBS, cmpd/DMSO (mean)): 1
fold induction at 2 µM (HEK293 pGL4; HEK293, pGL4, 10% FBS, 2 uM, read-out: Firefly, pGL4, 10% FBS, cmpd/DMSO (mean)): 1.2
fold induction at 10 µM (HEK293 pGL4; HEK293, pGL4, 10% FBS, 10 uM, read-out: Firefly, pGL4, 10% FBS, cmpd/DMSO (mean)): 1.9
fold induction at 40 µM (HEK293 pGL4; HEK293, pGL4, 10% FBS, 40 uM, read-out: Firefly, pGL4, 10% FBS, cmpd/DMSO (mean)): 1.8
